For one series, the system named is native KCNQ/M channels. As to the kind of experiment: Whole-cell recording of native M current in cultured hippocampal neurons. To be noted: measured at −60 mV.
Series [1] relates to CRS mice. As to the kind of experiment: TST in chronic restraint stress. In kind it is in vivo, mouse.
For the next series, the system named is normal mice. The experiment in a line: Novel object recognition. The format is in vivo, mouse.
The test system of another series is scopolamine-treated mice. The experiment in a line: NOR in scopolamine-induced cognitive deficit. In kind it is in vivo, mouse.
Series [2] deals with CRS mice. The experiment in a line: FST in chronic restraint stress. In kind it is in vivo, mouse.
Series [3] deals with CRS mice. The experiment in a line: Morris water maze. The format is in vivo, mouse.
For the next series, the target named is D2 (Homo sapiens, UniProt P14416). As to the kind of experiment: Receptor binding, [3H]-Spiperone. To be noted: read-out: % Inhibition of binding by D01 (10 μmol/L).
For series [4], the system named is mice. The experiment in a line: Tail suspension test. The format is in vivo, mouse. To be noted: i.g., 60 min before test, doses 10, 30, 100 mg/kg.
For a further series, the target named is KCNQ2/3 channels (Homo sapiens, UniProt O43525+O43526). In kind it is cell-based.
A further series has as its target 5-HT2A (Homo sapiens, UniProt P28223). As to the kind of experiment: Receptor binding, [3H]-Ketanserin. To be noted: read-out: % Inhibition of binding by D01 (10 μmol/L).
The target in another series is Sigma-1 (Homo sapiens, UniProt Q99720). The experiment in a line: Receptor binding, [3H]-Pentazocine. To be noted: read-out: % Inhibition of binding by D01 (10 μmol/L).
For the next series, the system named is NMDA. As to the kind of experiment: Receptor binding, [3H]-MK801.
The target of another series is D1 (Homo sapiens, UniProt P21728). As to the kind of experiment: Receptor binding, [3H]-SCH23390. To be noted: read-out: % Inhibition of binding by D01 (10 μmol/L).
For the next series, the target named is α1. The experiment in a line: Receptor binding, [3H]-Prazosin.
In another series the target is 5-HT1B (Homo sapiens, UniProt P28222). The experiment in a line: Receptor binding, [3H]-GR-125743. To be noted: read-out: % Inhibition of binding by D01 (10 μmol/L).
For series [5], the target named is serotonin transporter (SERT) (Rattus norvegicus, UniProt P31652). The format is binding.
The next series concerns the target 5-HT2C (Homo sapiens, UniProt P28335). As to the kind of experiment: Receptor binding, [3H]-Mesulergine. To be noted: read-out: % Inhibition of binding by D01 (10 μmol/L).
The target in the next series is H1 (Homo sapiens, UniProt P35367). As to the kind of experiment: Receptor binding, [3H]-Pyrilamine.
Another series concerns the target H3 (Homo sapiens, UniProt Q9Y5N1). The experiment in a line: Receptor binding, [3H]-Methylhistamine. To be noted: read-out: % Inhibition of binding by D01 (10 μmol/L).
For another series, the target named is 5-HT1A (Homo sapiens, UniProt P08908). As to the kind of experiment: Receptor binding, [3H]-8-OH-DPAT. To be noted: read-out: % Inhibition of binding by D01 (10 μmol/L).
The test system of the next series is hippocampal slices, CA1. As to the kind of experiment: LTP recording. The format is in vivo, mouse. To be noted: 30 mg/kg i.p. + scopolamine 1 mg/kg i.p.
In the next series the test system is hippocampal neurons. As to the kind of experiment: Resting membrane potential and firing of cultured hippocampal neurons. The format is cell-based, rat. To be noted: 100 μmol/L.
The test system of a further series is α2. The experiment in a line: Receptor binding, [3H]-Rauwolscine. To be noted: α2, 10 μmol/L.
The subject of the next series is animals. As to the kind of experiment: Observation of epileptic behavior in treated animals. The format is in vivo. To be noted: up to 100 mg/kg.
A further series deals with SERT (Rattus norvegicus, UniProt P31652). As to the kind of experiment: [3H]5-HT uptake by crude synaptosomes. In kind it is biochemical.
Another series concerns the target M1 (Homo sapiens, UniProt P11229). The experiment in a line: Receptor binding, [3H]-QNB. To be noted: read-out: % Inhibition of binding by D01 (10 μmol/L).
Series [6] relates to mice. As to the kind of experiment: Forced swimming test. In kind it is in vivo, mouse. To be noted: i.g., 1 h before test, doses 10, 30, 100 mg/kg.
The target of a further series is D3 (Homo sapiens, UniProt P35462). The experiment in a line: Receptor binding, [3H]-Spiperone. To be noted: read-out: % Inhibition of binding by D01 (10 μmol/L).
[7] abbreviates: fluoxetine 20 mg/kg i.g., 21 days.

The text below walks through data of publication PMC10935023 (Acta Pharmaceutica Sinica. B, 2023).

Structures are written as SMILES.

Sequence of H1 (P35367 whole entry): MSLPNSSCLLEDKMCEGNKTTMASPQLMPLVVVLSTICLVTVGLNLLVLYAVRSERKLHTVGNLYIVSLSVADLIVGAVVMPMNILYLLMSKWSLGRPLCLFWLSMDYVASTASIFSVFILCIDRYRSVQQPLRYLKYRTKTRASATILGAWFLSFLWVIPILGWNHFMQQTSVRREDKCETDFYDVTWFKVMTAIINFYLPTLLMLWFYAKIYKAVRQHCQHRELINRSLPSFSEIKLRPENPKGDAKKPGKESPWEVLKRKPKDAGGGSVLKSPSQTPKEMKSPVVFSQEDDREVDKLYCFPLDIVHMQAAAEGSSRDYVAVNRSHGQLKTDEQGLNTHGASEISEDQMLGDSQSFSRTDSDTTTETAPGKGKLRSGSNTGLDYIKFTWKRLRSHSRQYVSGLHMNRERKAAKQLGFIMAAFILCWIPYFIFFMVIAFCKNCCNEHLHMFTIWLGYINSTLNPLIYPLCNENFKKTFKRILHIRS
Sequence of M1 (P11229 whole entry): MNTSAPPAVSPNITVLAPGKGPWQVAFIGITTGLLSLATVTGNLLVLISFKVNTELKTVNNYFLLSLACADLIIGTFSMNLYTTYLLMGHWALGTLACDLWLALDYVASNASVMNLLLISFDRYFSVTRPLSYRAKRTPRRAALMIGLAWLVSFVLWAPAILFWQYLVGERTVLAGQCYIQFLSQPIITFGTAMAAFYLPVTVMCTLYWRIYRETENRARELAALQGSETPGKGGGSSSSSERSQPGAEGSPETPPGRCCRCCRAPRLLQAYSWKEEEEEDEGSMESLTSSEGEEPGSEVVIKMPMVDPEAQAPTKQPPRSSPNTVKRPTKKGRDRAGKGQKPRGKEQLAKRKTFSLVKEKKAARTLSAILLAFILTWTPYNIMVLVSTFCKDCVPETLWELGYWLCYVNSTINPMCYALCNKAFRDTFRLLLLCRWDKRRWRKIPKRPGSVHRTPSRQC
Sequence of D1 (P21728 whole entry): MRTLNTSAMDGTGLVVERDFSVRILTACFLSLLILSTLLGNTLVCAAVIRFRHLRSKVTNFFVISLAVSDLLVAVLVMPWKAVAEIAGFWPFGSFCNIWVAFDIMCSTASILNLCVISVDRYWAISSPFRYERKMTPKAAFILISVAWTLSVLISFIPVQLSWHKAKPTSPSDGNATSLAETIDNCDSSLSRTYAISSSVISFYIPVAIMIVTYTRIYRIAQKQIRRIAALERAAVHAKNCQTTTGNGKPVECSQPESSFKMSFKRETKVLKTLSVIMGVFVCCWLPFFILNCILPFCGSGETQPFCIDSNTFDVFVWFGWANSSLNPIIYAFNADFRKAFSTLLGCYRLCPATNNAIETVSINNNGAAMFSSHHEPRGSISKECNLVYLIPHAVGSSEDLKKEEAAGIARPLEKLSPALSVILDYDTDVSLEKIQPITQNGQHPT
Sequence of D2 (P14416 whole entry): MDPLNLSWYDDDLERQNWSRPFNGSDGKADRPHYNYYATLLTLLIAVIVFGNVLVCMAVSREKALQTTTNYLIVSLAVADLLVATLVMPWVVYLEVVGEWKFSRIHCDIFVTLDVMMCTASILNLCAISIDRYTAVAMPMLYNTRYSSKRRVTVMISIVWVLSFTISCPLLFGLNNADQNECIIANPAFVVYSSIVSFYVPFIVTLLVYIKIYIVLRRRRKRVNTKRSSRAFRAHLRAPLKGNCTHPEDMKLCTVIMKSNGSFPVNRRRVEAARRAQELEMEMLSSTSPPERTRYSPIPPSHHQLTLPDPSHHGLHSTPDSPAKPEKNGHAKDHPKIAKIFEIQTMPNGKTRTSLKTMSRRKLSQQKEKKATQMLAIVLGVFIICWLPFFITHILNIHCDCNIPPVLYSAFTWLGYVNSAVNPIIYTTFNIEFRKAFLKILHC
Sequence of Sigma-1 (Q99720 whole entry): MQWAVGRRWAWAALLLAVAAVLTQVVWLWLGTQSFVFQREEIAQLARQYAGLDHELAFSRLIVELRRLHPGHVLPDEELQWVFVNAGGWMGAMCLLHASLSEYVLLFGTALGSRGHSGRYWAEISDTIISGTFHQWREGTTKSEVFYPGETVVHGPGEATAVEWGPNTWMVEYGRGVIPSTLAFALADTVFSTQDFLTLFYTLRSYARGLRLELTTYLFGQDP
Sequence of KCNQ2/3 channels (O43525 whole entry): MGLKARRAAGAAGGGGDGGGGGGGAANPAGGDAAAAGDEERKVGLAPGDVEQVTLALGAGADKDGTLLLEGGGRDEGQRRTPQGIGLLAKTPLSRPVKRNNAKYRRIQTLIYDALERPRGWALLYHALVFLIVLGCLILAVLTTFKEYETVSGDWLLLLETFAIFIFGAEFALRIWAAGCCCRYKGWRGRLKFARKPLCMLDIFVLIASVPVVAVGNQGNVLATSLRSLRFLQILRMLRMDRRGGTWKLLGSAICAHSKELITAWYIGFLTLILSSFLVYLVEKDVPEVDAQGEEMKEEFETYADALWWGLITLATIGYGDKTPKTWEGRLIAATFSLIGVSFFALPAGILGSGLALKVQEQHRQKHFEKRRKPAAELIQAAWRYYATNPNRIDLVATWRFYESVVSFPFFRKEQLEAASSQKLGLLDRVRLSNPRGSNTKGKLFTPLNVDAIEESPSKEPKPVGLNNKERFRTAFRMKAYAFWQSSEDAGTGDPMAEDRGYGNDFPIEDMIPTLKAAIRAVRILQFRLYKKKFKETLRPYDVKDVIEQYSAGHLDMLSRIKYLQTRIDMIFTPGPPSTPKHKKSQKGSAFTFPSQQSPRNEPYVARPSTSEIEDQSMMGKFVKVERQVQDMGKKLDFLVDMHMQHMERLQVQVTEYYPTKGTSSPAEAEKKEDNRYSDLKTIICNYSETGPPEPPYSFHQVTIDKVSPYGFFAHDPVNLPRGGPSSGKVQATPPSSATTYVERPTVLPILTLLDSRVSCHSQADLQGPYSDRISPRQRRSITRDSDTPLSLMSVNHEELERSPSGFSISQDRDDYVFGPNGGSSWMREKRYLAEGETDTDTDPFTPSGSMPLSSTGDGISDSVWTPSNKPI
Sequence of KCNQ2/3 channels (O43526 whole entry): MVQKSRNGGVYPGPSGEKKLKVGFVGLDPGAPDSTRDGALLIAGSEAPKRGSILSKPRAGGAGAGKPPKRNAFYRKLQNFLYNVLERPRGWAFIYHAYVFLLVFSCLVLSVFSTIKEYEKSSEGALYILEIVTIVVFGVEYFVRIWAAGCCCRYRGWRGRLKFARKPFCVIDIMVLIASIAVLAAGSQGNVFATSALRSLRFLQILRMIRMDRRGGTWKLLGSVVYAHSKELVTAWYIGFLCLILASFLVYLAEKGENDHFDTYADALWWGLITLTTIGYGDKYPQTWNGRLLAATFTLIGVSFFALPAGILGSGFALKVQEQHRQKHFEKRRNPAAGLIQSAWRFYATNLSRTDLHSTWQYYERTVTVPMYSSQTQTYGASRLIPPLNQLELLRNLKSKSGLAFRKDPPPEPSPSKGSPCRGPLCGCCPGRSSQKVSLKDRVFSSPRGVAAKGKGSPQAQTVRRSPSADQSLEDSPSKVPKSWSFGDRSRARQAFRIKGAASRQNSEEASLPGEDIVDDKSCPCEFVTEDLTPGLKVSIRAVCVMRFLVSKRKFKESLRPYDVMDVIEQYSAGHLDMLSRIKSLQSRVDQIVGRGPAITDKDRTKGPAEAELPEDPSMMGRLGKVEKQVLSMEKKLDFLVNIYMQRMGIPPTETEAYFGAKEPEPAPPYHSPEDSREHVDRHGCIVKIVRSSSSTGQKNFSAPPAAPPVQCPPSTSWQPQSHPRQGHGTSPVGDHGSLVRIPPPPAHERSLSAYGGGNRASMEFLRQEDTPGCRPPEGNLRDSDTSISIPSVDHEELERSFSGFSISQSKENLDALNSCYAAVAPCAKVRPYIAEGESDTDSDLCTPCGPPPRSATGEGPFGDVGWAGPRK
Sequence of H3 (Q9Y5N1 whole entry): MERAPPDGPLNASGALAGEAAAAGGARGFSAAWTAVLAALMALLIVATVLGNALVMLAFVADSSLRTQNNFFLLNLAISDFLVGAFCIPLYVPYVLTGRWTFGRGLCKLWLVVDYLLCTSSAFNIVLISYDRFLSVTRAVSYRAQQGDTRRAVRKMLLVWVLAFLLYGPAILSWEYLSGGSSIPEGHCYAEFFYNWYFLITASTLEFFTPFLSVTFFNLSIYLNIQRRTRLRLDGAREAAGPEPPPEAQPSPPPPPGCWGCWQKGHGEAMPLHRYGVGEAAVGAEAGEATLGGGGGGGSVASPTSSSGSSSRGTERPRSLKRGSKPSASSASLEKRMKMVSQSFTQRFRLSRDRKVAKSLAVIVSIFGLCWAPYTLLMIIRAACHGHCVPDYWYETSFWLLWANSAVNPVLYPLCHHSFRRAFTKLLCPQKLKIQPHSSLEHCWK
Sequence of 5-HT2C (P28335 33-458, species assumed): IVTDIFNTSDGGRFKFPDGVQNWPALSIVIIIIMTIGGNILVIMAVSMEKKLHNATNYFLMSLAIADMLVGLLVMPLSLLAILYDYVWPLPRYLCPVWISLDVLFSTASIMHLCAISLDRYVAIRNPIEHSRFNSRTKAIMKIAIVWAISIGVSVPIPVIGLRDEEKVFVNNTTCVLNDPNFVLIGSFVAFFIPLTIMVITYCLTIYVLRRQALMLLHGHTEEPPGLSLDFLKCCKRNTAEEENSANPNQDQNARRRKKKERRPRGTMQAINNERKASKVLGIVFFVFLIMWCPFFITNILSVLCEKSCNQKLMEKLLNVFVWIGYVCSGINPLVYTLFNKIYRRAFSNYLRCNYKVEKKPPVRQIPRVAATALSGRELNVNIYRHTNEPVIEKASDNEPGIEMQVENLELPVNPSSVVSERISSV

Regarding `CCOC(=O)Nc1ccc(NCc2ccc(F)cc2)cc1N` [RTG, retigabine], the “effect on native M current” value with native KCNQ/M channels (10 μmol/L) is “activated”.

Regarding `CNCCC(Oc1ccc(C(F)(F)F)cc1)c1ccccc1` (centres unmarked) [fluoxetine, reference compound], the “immobility time in TST” value with CRS mice [1] (setting [7]) came to 69.8 ± 14.9 s. The “difference in time spent on novel and familiar objects” value with normal mice (fluoxetine 100 mg/kg i.g.) is recorded as “no obvious difference”. Moreover, in the series on scopolamine-treated mice (scopolamine 1 mg/kg i.p. + fluoxetine 100 mg/kg i.g.), the “improvement in scopolamine-induced cognitive impairment” value is recorded as “did not show any noticeable improvement”. The “immobility time in FST” value in the series with CRS mice [2] (setting [7]) amounted to 18.7 ± 6.3 s. Besides, in the series with CRS mice [3] (fluoxetine 20 mg/kg i.g.), the “effect on escape latency” value is “did not show any significant effect”; the “effect on time and distance in target quadrant, probe trial Day 5” value is on record as “did not exhibit any noticeable effects”.

Turning to `CC(CN(C)C)C(Oc1cccc2ccccc12)c1cccs1` (centres unmarked) [Compound D01, N,N,2-trimethyl-3-(1-naphthyloxy)-3-(thien-2-yl) propan-1-amine], the “immobility time in TST” value in the series on CRS mice [1] (20 mg/kg i.g., 21 days (D01)) came out at 87.61 ± 12.04 s; with CRS mice [1] (40 mg/kg i.g., 21 days), 68.17 ± 20.30 s. Moreover, the inhibition at 10 µM was determined as 16.1% at D2; 25.1% on 5-HT2A; 34% on Sigma-1; 16.3% at D1; 12% on 5-HT1B; 38% on 5-HT2C. In addition, the inhibition at 10 µM on H1 (read-out: % Inhibition of binding by D01 (10 μmol/L)) was 61.8%; on H3, 13.9%; at 5-HT1A, -24.1%; on M1, 24.7%; at D3, 32.8%. In the series on mice [4], the “minimal effective dose (MED), immobility in TST” value is given as 10 mg/kg. For the same compound, the IC50 was 10.1 ± 2.4 µM on KCNQ2/3 channels; over 10 µM at α1 (read-out: IC50 for D01, α1); over 10 µM at H1; 0.045 ± 0.009 µM against SERT. For the same compound, the “effect on native M current” value in the series with native KCNQ/M channels (100 μmol/L) is reported as “dramatically inhibits”. The “time spent on familiar object” value in the series with normal mice (30 mg/kg i.g.) was 7.20 ± 2.73 s; in the series with normal mice (100 mg/kg i.g.), 10.90 ± 2.50 s. The figures for the “time spent on novel object” value with normal mice (30 mg/kg i.g.) and in the series on normal mice (100 mg/kg i.g.) were 18.10 ± 6.42 s and 21.90 ± 4.84 s, respectively. For the same compound, the “% Inhibition of binding by D01 (10 μmol/L)” value in the series with NMDA is given as 9.83%; in the series with α1 (α1, 10 μmol/L) it was 56.21%; in the series on α2 it was 38.43%. The Ki in [5] was found to be 0.0301 ± 0.0069 µM. In the series on hippocampal slices, CA1, the “effect on scopolamine-induced LTP inhibition” value was “significantly reversed”. In the series on hippocampal neurons, the “effect on resting membrane potential” value is reported as “depolarizes”. The “significant increase of firing frequency” value with hippocampal neurons was “did not observe”. Also, the “discrimination index (DI)” value with scopolamine-treated mice (scopolamine 1 mg/kg i.p. + 10 mg/kg i.g.) came to 0.21 ± 0.08; in the series with scopolamine-treated mice (scopolamine 1 mg/kg i.p. + 30 mg/kg i.g.), 0.36 ± 0.03; in the series on scopolamine-treated mice (scopolamine 1 mg/kg i.p. + 100 mg/kg i.g.) it was 0.45 ± 0.05. In addition, the “immobility time in FST” value in the series on CRS mice [2] (20 mg/kg i.g., 21 days (D01)) amounted to 54.53 ± 18.11 s; in the series with CRS mice [2] (40 mg/kg i.g., 21 days), 44.62 ± 17.03 s. The epileptic behavior result in the series on animals was “did not observe”. For the same compound, the “distance traveled while crossing the target zone, probe trial Day 5” value with CRS mice [3] (10 mg/kg i.g.) was determined as 4748.7 ± 308.1 cm; in the series with CRS mice [3] (20 mg/kg i.g.), 4501.3 ± 266.5 cm; with CRS mice [3] (40 mg/kg i.g.), 4357.5 ± 310.9 cm. Besides, the “escape latency after four days of training” value came to 37.3 ± 3.1 s in the series on CRS mice [3] (10 mg/kg i.g.), 32.2 ± 3.6 s with CRS mice [3] (20 mg/kg i.g.) and 30.1 ± 3.9 s with CRS mice [3] (40 mg/kg i.g.). The initial escape latency came to 51.1 ± 2.5 s with CRS mice [3] (10 mg/kg i.g.), 45.7 ± 3.7 s with CRS mice [3] (20 mg/kg i.g.) and 42.6 ± 3.5 s with CRS mice [3] (40 mg/kg i.g.). Moreover, the figures for the “time in the target quadrant, probe trial Day 5” value with CRS mice [3] (20 mg/kg i.g.) and with CRS mice [3] (40 mg/kg i.g.) were 15.8 ± 0.8 s and 16.2 ± 0.8 s, respectively. In addition, the “minimal effective dose (MED), immobility in FST” value in the series with mice [6] is recorded as 30 mg/kg.

Turning to `CCN(C)C(=O)Oc1cccc([C@H](C)N(C)C)c1` [rivastigmine, reference compound], the “improvement in scopolamine-induced cognitive impairment” value in the series on scopolamine-treated mice (scopolamine 1 mg/kg i.p. + 0.01 mg/kg s.c.) was “did not show any noticeable improvement”.

As to `O=C1c2ccccc2C(Cc2ccncc2)(Cc2ccncc2)c2ccccc21` [XE991, reference compound], the “reduction of immobility in TST” value in the series on CRS mice [1] (1 mg/kg s.c.) was “not statistically significant”. In addition, in the series on native KCNQ/M channels (3 μmol/L), the “effect on native M current” value is “inhibited”. In the series with normal mice (1 mg/kg s.c.), the “time spent on familiar object” value turned out to be 16.50 ± 2.63 s and the “time spent on novel object” value was determined as 38.40 ± 3.80 s. Further, the “discrimination index (DI)” value in the series with scopolamine-treated mice (scopolamine 1 mg/kg i.p. + XE991 1 mg/kg s.c.) was 0.36 ± 0.04. In the series on CRS mice [2] (1 mg/kg s.c.), the “reduction of immobility in FST” value is on record as “not statistically significant”. For the same compound, in the series on CRS mice [3] (XE991 1 mg/kg s.c.), the “effect on time and distance in target quadrant, probe trial Day 5” value is “did not exhibit any noticeable effects”; the “escape latency after four days of training” value was found to be 33.4 ± 3.4 s; the initial escape latency turned out to be 48.9 ± 3.4 s.

For orientation: IC50 means the concentration at which inhibition is half-maximal. The term Ki denotes a dissociation constant, usually derived from enzyme kinetics or from competition with a known ligand. A low value points to a stronger hold on the target.
